#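 Grown in 96-well plates, cells were treated for 48 hours with each compound at five concentrations. Insufficient inhibition: endpoint recorded as highest concentration tested. GI50 marks 50% less growth. TGI marks complete inhibition of growth.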
# Assays:
# Assay in all cases: DTP human tumour cell line panel, 48 h
# SK-MEL-2 melanoma = system: SK-MEL-2 melanoma
# LOX IMVI melanoma = system: LOX IMVI melanoma
# HS 578T breast = system: HS 578T breast
# SF-295 CNS = system: SF-295 CNS
# HL-60(TB) leukemia = system: HL-60(TB) leukemia
# COLO 205 colon = system: COLO 205 colon
# MCF7 breast = system: MCF7 breast
# PC-3 prostate = system: PC-3 prostate
# RPMI-8226 leukemia = system: RPMI-8226 leukemia
# NCI/ADR-RES ovarian = system: NCI/ADR-RES ovarian
# SF-539 CNS = system: SF-539 CNS
# NCI-H23 lung = system: NCI-H23 lung
# SW-620 colon = system: SW-620 colon
# CAKI-1 renal = system: CAKI-1 renal
# A498 renal = system: A498 renal
# HOP-62 NSCLC = system: HOP-62 NSCLC
# HT29 colon = system: HT29 colon
# HCT-15 colon = system: HCT-15 colon
# UO-31 renal = system: UO-31 renal
# SF-268 CNS = system: SF-268 CNS
# M14 melanoma = system: M14 melanoma
# CCRF-CEM leukemia = system: CCRF-CEM leukemia
# KM12 colon = system: KM12 colon
# UACC-257 melanoma = system: UACC-257 melanoma
# SK-MEL-5 melanoma = system: SK-MEL-5 melanoma
# MOLT-4 leukemia = system: MOLT-4 leukemia
# 786-0 renal = system: 786-0 renal
# OVCAR-3 ovarian = system: OVCAR-3 ovarian
# MDA-MB-435 = system: MDA-MB-435
# SNB-75 CNS = system: SNB-75 CNS
# SK-MEL-28 melanoma = system: SK-MEL-28 melanoma
# RXF 393 renal = system: RXF 393 renal
# HCT-116 colon = system: HCT-116 colon
# U251 CNS = system: U251 CNS
# A549 NSCLC = system: A549 NSCLC
# HCC-2998 colon = system: HCC-2998 colon
# SNB-19 CNS = system: SNB-19 CNS
# SK-OV-3 ovarian = system: SK-OV-3 ovarian
# OVCAR-8 ovarian = system: OVCAR-8 ovarian
# OVCAR-5 ovarian = system: OVCAR-5 ovarian
# HOP-92 NSCLC = system: HOP-92 NSCLC
# MDA-MB-231 breast = system: MDA-MB-231 breast
# OVCAR-4 ovarian = system: OVCAR-4 ovarian
# NCI-H460 lung = system: NCI-H460 lung
# K-562 leukemia = system: K-562 leukemia
# UACC-62 melanoma = system: UACC-62 melanoma
# ACHN renal = system: ACHN renal
# EKVX NSCLC = system: EKVX NSCLC
# BT-549 breast = system: BT-549 breast
# NCI-H226 lung = system: NCI-H226 lung
# IGROV1 ovarian = system: IGROV1 ovarian
# DU-145 prostate = system: DU-145 prostate
# SR leukemia = system: SR leukemia
# SN12C renal = system: SN12C renal
# NCI-H522 lung = system: NCI-H522 lung
# MALME-3M melanoma = system: MALME-3M melanoma
# T-47D breast = system: T-47D breast
# TK-10 renal = system: TK-10 renal
smiles,measurement,setting,value
CC12CP(=O)(O)CC1C2(Cl)Cl (configuration not stated),TGI,SK-MEL-2 melanoma,> 100 µM
same,TGI,LOX IMVI melanoma,> 100 µM
same,TGI,HS 578T breast,> 100 µM
same,TGI,SF-295 CNS,> 100 µM
same,TGI,HL-60(TB) leukemia,> 100 µM
same,TGI,COLO 205 colon,> 100 µM
same,TGI,MCF7 breast,> 100 µM
same,TGI,PC-3 prostate,> 100 µM
same,TGI,RPMI-8226 leukemia,> 100 µM
same,TGI,NCI/ADR-RES ovarian,> 100 µM
same,TGI,SF-539 CNS,> 100 µM
same,TGI,NCI-H23 lung,> 100 µM
same,TGI,SW-620 colon,> 100 µM
same,TGI,CAKI-1 renal,> 100 µM
same,TGI,A498 renal,> 100 µM
same,TGI,HOP-62 NSCLC,> 100 µM
same,TGI,HT29 colon,> 100 µM
same,TGI,HCT-15 colon,> 100 µM
same,TGI,UO-31 renal,> 100 µM
same,TGI,SF-268 CNS,> 100 µM
same,TGI,M14 melanoma,> 100 µM
same,TGI,CCRF-CEM leukemia,> 100 µM
same,TGI,KM12 colon,> 100 µM
same,TGI,UACC-257 melanoma,> 100 µM
same,TGI,SK-MEL-5 melanoma,> 100 µM
same,TGI,MOLT-4 leukemia,> 100 µM
same,TGI,786-0 renal,> 100 µM
same,TGI,OVCAR-3 ovarian,> 100 µM
same,TGI,MDA-MB-435,> 100 µM
same,TGI,SNB-75 CNS,> 100 µM
same,TGI,SK-MEL-28 melanoma,> 100 µM
same,TGI,RXF 393 renal,> 100 µM
same,TGI,HCT-116 colon,> 100 µM
same,TGI,U251 CNS,> 100 µM
same,TGI,A549 NSCLC,> 100 µM
same,TGI,HCC-2998 colon,> 100 µM
same,TGI,SNB-19 CNS,> 100 µM
same,TGI,SK-OV-3 ovarian,> 100 µM
same,TGI,OVCAR-8 ovarian,> 100 µM
same,TGI,OVCAR-5 ovarian,> 100 µM
same,TGI,HOP-92 NSCLC,> 100 µM
same,TGI,MDA-MB-231 breast,> 100 µM
same,TGI,OVCAR-4 ovarian,> 100 µM
same,TGI,NCI-H460 lung,> 100 µM
same,TGI,K-562 leukemia,> 100 µM
same,TGI,UACC-62 melanoma,> 100 µM
same,TGI,ACHN renal,> 100 µM
same,TGI,EKVX NSCLC,> 100 µM
same,TGI,BT-549 breast,> 100 µM
same,TGI,NCI-H226 lung,> 100 µM
same,TGI,IGROV1 ovarian,> 100 µM
same,TGI,DU-145 prostate,> 100 µM
same,TGI,SR leukemia,> 100 µM
same,TGI,SN12C renal,> 100 µM
same,TGI,NCI-H522 lung,> 100 µM
same,TGI,MALME-3M melanoma,> 100 µM
same,TGI,T-47D breast,> 100 µM
same,TGI,TK-10 renal,> 100 µM
CCCCNC(=O)Oc1ccc(/C(=C(\C)c2ccc(OC)cc2)c2ccc(OCCN3CCCCC3)cc2)cc1,GI50,SK-MEL-2 melanoma,4.65 µM
same,TGI,SK-MEL-2 melanoma,17.4 µM
same,GI50,LOX IMVI melanoma,1.83 µM
same,TGI,LOX IMVI melanoma,3.44 µM
same,GI50,HS 578T breast,2.14 µM
same,TGI,HS 578T breast,4.82 µM
same,GI50,SF-295 CNS,2.27 µM
same,TGI,SF-295 CNS,5.47 µM
same,GI50,HL-60(TB) leukemia,1.53 µM
same,TGI,HL-60(TB) leukemia,3.58 µM
same,GI50,COLO 205 colon,2.07 µM
same,TGI,COLO 205 colon,4.63 µM
same,GI50,MCF7 breast,0.0721 µM
same,TGI,MCF7 breast,3.99 µM
same,GI50,PC-3 prostate,2.35 µM
same,TGI,PC-3 prostate,7.03 µM
same,GI50,RPMI-8226 leukemia,2.14 µM
same,TGI,RPMI-8226 leukemia,5.13 µM
same,GI50,NCI/ADR-RES ovarian,3.67 µM
same,TGI,NCI/ADR-RES ovarian,19.3 µM
same,GI50,SF-539 CNS,1.64 µM
same,TGI,SF-539 CNS,3.12 µM
same,GI50,NCI-H23 lung,4.06 µM
same,TGI,NCI-H23 lung,21.4 µM
same,GI50,SW-620 colon,2.45 µM
same,TGI,SW-620 colon,6.15 µM
same,GI50,CAKI-1 renal,1.94 µM
same,TGI,CAKI-1 renal,3.92 µM
same,GI50,HOP-62 NSCLC,3.15 µM
same,TGI,HOP-62 NSCLC,10.7 µM
same,GI50,HT29 colon,0.873 µM
same,TGI,HT29 colon,6.77 µM
same,GI50,HCT-15 colon,1.67 µM
same,TGI,HCT-15 colon,4.52 µM
same,GI50,UO-31 renal,1.71 µM
same,TGI,UO-31 renal,4.01 µM
same,GI50,SF-268 CNS,5.55 µM
same,TGI,SF-268 CNS,20.5 µM
same,GI50,M14 melanoma,1.7 µM
same,TGI,M14 melanoma,3.23 µM
same,GI50,CCRF-CEM leukemia,2.81 µM
same,TGI,CCRF-CEM leukemia,9.78 µM
same,GI50,KM12 colon,2.35 µM
same,TGI,KM12 colon,5.91 µM
same,GI50,UACC-257 melanoma,2.72 µM
same,TGI,UACC-257 melanoma,6.71 µM
same,GI50,SK-MEL-5 melanoma,1.68 µM
same,TGI,SK-MEL-5 melanoma,3.08 µM
same,GI50,MOLT-4 leukemia,3.12 µM
same,TGI,MOLT-4 leukemia,71.9 µM
same,GI50,786-0 renal,1.47 µM
same,TGI,786-0 renal,2.83 µM
same,GI50,OVCAR-3 ovarian,2.09 µM
same,TGI,OVCAR-3 ovarian,4.51 µM
same,GI50,MDA-MB-435,1.78 µM
same,TGI,MDA-MB-435,3.67 µM
same,GI50,SNB-75 CNS,6.91 µM
same,TGI,SNB-75 CNS,25 µM
same,GI50,SK-MEL-28 melanoma,1.75 µM
same,TGI,SK-MEL-28 melanoma,3.4 µM
same,GI50,RXF 393 renal,2.09 µM
same,TGI,RXF 393 renal,4.3 µM
same,GI50,HCT-116 colon,1.15 µM
same,TGI,HCT-116 colon,2.38 µM
same,GI50,U251 CNS,2.49 µM
same,TGI,U251 CNS,5.99 µM
same,GI50,A549 NSCLC,4.15 µM
same,TGI,A549 NSCLC,16 µM
same,GI50,HCC-2998 colon,3.31 µM
same,TGI,HCC-2998 colon,11.5 µM
same,GI50,SNB-19 CNS,3.95 µM
same,TGI,SNB-19 CNS,15.2 µM
same,GI50,SK-OV-3 ovarian,7.63 µM
same,TGI,SK-OV-3 ovarian,25 µM
same,GI50,OVCAR-8 ovarian,3.4 µM
same,TGI,OVCAR-8 ovarian,11.1 µM
same,GI50,OVCAR-5 ovarian,7.27 µM
same,TGI,OVCAR-5 ovarian,23.2 µM
same,GI50,HOP-92 NSCLC,1.57 µM
same,TGI,HOP-92 NSCLC,3.71 µM
same,GI50,MDA-MB-231 breast,2.08 µM
same,TGI,MDA-MB-231 breast,3.83 µM
same,GI50,OVCAR-4 ovarian,2.29 µM
same,TGI,OVCAR-4 ovarian,8.2 µM
same,GI50,NCI-H460 lung,1.94 µM
same,TGI,NCI-H460 lung,3.86 µM
same,GI50,K-562 leukemia,1.49 µM
same,TGI,K-562 leukemia,4.65 µM
same,GI50,UACC-62 melanoma,2.06 µM
same,TGI,UACC-62 melanoma,4.1 µM
same,GI50,ACHN renal,3.12 µM
same,TGI,ACHN renal,10.7 µM
same,GI50,EKVX NSCLC,5.18 µM
same,TGI,EKVX NSCLC,22.9 µM
same,GI50,BT-549 breast,1.48 µM
same,TGI,BT-549 breast,2.89 µM
same,GI50,NCI-H226 lung,7.77 µM
same,TGI,NCI-H226 lung,27.9 µM
same,GI50,IGROV1 ovarian,2.6 µM
same,TGI,IGROV1 ovarian,6.46 µM
same,GI50,DU-145 prostate,6.5 µM
same,TGI,DU-145 prostate,21.4 µM
same,GI50,SR leukemia,1.59 µM
same,TGI,SR leukemia,4.63 µM
same,GI50,SN12C renal,2.21 µM
same,TGI,SN12C renal,6.01 µM
same,GI50,NCI-H522 lung,3.42 µM
same,TGI,NCI-H522 lung,11.4 µM
same,GI50,MALME-3M melanoma,1.74 µM
same,TGI,MALME-3M melanoma,3.31 µM
same,GI50,T-47D breast,1.24 µM
same,TGI,T-47D breast,6.37 µM
same,GI50,TK-10 renal,9.41 µM
same,TGI,TK-10 renal,23.3 µM
